{
  "source": "patent US20120046331A1",
  "about": "“Antifungal Agents and Uses Thereof” (priority 2010, published 2012)",
  "key": {"E. floccosum": {"system": "E. floccosum", "experiment": "Checkerboard combination testing of compound 8 with antifungals, FIC (Example 1)", "assay_type": "cell-based, Epidermophyton floccosum", "conditions": "in combination with Cpd 8, one value per clinical isolate (Strain # 1-6)", "protocol": "This example describes the in vitro activity of combinations of compounds according to the present invention and antifungal agents against a collection of dermatophytic fungal pathogens. Antifungal susceptibility testing was adapted from the CLSI M38-A broth microdilution method for dermatophytes (NCCLS-M38-A2 2008). Combination testing was performed by checkerboard method (with compound 8 in combination with fluconazole, itraconazole or terbinafine). A total of 30 isolates of 5 different fungal species were tested in the combination test: 6 isolates each of Trichophyton tonsurans, Trichophyton rubrum, Epidermophyton floccosum, Trichophyton mentagrophytes and Microsporum canis. Clinical isolates were obtained by the Laboratory of Dr. M. Ghannoum at Case Western University.\nSynergy was assessed using the fractional inhibitory concentration (FIC), an interaction coefficient, with the following definitions:\nThe fold reduction of the itraconazole minimum inhibitory concentration (MIC) was also evaluated."}, "T. rubrum": {"system": "T. rubrum", "experiment": "MIC testing, modified CLSI M38-A2 for dermatophytes (Example 2)", "assay_type": "cell-based, Trichophyton rubrum", "conditions": "for MIC50: lowest concentration to inhibit 50% of the strains tested, n = 20"}, "T. mentagrophytes": {"system": "T. mentagrophytes", "experiment": "MIC testing, modified CLSI M38-A2 for dermatophytes (Example 2)", "assay_type": "cell-based", "conditions": "n = 5 strains", "protocol": "(§1) MIC testing was performed according to the modification of the CLSI M38-A2 standard for dermatophytes developed at the Center (CLSI. Reference Method for Broth Dilution Antifungal Susceptibility Testing of Filamentous Fungi; Approved Standard-Second Edition. CLSI document M38-A2 [ISBN 1-56238-668-9]. CLSI, 940 West Valley Road, Suite 1400, Wayne, Pa. 19087-1898 USA, 2008; Ghannoum M A, et al. Intra- and Interlaboratory Study of a Method for Testing the Antifungal Susceptibilities of Dermatophytes. 2004 J Clin Microbiol 42:(7): 2977-2979). Compound 8 and fluconazole were tested in combination using a checkerboard microdilution method. The interaction between Compound 8 and fluconazole was determined by FIC Index, or Fractional Inhibitory Concentration Index, which assigns a numerical value to the interaction of the two antifungals."}, "T. tonsurans": {"system": "T. tonsurans", "experiment": "MIC testing, modified CLSI M38-A2 for dermatophytes (Example 2)", "assay_type": "cell-based", "conditions": "n = 5 strains", "protocol": "as §1"}},
  "note": "Like-named read-outs stand apart in the source and are kept apart here.",
  "data": [
    {"smiles": "CCC(C)n1ncn(-c2ccc(N3CCN(c4ccc(OCC5COC(Cn6cncn6)(c6ccc(Cl)cc6Cl)O5)cc4)CC3)cc2)c1=O", "note": "(stereo not drawn) [Itraconazole, itraconazole, reference compound]", "values": [
      {"measurement": "MIC", "setting": "E. floccosum; Epidermophyton floccosum, read-out: Itraconazole MIC with Cpd 8", "value": 0.015, "unit": "µg/mL"},
      {"measurement": "Itraconazole MIC with Cpd 8", "setting": "E. floccosum", "value": 0.008, "unit": "µg/mL"}
    ]},
    {"smiles": "OC(Cn1cncn1)(Cn1cncn1)c1ccc(F)cc1F", "note": "[Fluconazole, fluconazole]", "values": [
      {"measurement": "MIC50", "setting": "T. rubrum; Trichophyton rubrum, read-out: MIC50", "value": 1, "unit": "µg/mL"},
      {"measurement": "MIC90", "setting": "T. rubrum; Trichophyton rubrum, n = 20 strains", "value": 1, "unit": "µg/mL"},
      {"measurement": "MIC50", "setting": "T. rubrum", "value": 1, "unit": "µg/mL"},
      {"measurement": "MIC Range", "setting": "T. rubrum; n = 20 strains", "value": "0.25 to 4.0", "unit": "µg/mL"},
      {"measurement": "MIC50", "setting": "T. mentagrophytes; Trichophyton mentagrophytes", "value": 16, "unit": "µg/mL"},
      {"measurement": "MIC90", "setting": "T. mentagrophytes; Trichophyton mentagrophytes", "value": 16, "unit": "µg/mL"},
      {"measurement": "MIC Range", "setting": "T. mentagrophytes", "value": "2.0 to 16.0", "unit": "µg/mL"},
      {"measurement": "MIC50", "setting": "T. tonsurans; Trichophyton tonsurans", "value": 2, "unit": "µg/mL"},
      {"measurement": "MIC90", "setting": "T. tonsurans; Trichophyton tonsurans", "value": 4, "unit": "µg/mL"},
      {"measurement": "MIC Range", "setting": "T. tonsurans", "value": "1.0 to 4.0", "unit": "µg/mL"}
    ]}
  ]
}
